Test results as given in patent US20150246888A1, “ENOYL REDUCTASE INHIBITORS WITH ANTIBACTERIAL ACTIVITY” (priority 2012, published 2015).
In brackets after ≈: the same amount, converted by molar mass. Where two headings read alike, the source gives them in different places.

What was measured:
S. aureus = assay: Cell viability as a function of time (measured with depolarization); assay type: cell-based
S. aureus membrane = assay: Membrane depolarization as a function of time; assay type: cell-based
[1] = tested on: S. aureus (ATCC number 29213); assay: microbe, parasite or virus in culture; assay type: cell-based
FtuFabI = FtuFabI (Francisella tularensis subsp. tularensis, UniProt Q5NGQ3); assay: biochemical; design: species or system F. tularensis subsp. tularensis Schu4
[2] = tested on: B. anthracis, ΔANR strain; assay: microbe, parasite or virus in culture; assay type: cell-based; settings: Bacillus anthracis
MRSA (ATCC number 43300) = assay: microbe, parasite or virus in culture; assay type: cell-based, methicillin-resistant Staphylococcus aureus; settings: Staphylococcus aureus
[3] = tested on: E. coli TolC-, an efflux defective mutant; assay: microbe, parasite or virus in culture; assay type: cell-based; settings: Escherichia coli
[4] = tested on: F. tularensis, strain Utah 112; assay: microbe, parasite or virus in culture; assay type: cell-based; settings: Francisella tularensis, UTAH112
[5] = tested on: E. coli (BW251113 strain); assay: microbe, parasite or virus in culture; assay type: cell-based; settings: Escherichia coli
FabI = FabI (Francisella tularensis subsp. tularensis, UniProt Q5NGQ3); assay: biochemical; design: species or system F. tularensis subsp. tularensis Schu4
[6] = read-out: IC50, Inhibition of FabI

Sequence of FtuFabI (Q5NGQ3 1-260 limits assumed): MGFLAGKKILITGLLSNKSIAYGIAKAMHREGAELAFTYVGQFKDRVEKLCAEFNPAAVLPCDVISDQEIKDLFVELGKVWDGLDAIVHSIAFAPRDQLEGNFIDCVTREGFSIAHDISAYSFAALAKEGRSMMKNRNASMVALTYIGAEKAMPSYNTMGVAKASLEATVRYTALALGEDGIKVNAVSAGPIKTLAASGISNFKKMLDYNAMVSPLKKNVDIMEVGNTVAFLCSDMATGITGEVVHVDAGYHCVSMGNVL
Sequence of FabI (Q5NGQ3 1-260 limits assumed): as above

| Structure (SMILES) | MIC ([1]; Staphylococcus aureus) [µg/mL] | MIC [2] [µg/mL] | MIC (MRSA (ATCC number 43300)) [µg/mL] | MIC [3] [µg/mL] | MIC [4] [µg/mL] | MIC [5] [µg/mL] | IC50 (FtuFabI) [nM] | other results |
| --- | --- | --- | --- | --- | --- | --- | --- | --- |
| CC1(C)S[C@@H]2[C@H](NC(=O)[C@H](N)c3ccccc3)C(=O)N2[C@H]1C(=O)O [Ampicillin, reference compound] |  |  |  |  |  |  |  | Cell viability (done at 2X MIC) (S. aureus): bactericidal; Depolarization (done at 2X MIC) (S. aureus membrane): No depolarization; MIC [1]: 0.4 µg/mL (≈ 1.14 µM) |
| N#CC(C#N)=NNc1cccc(Cl)c1 [CCCP, carbonyl cyanide m-chlorophenylhydrazone, reference compound] | 1 (≈ 4.89 µM) |  |  |  |  |  |  | Cell viability (done at 2X MIC) (S. aureus): bactericidal; Depolarization (done at 2X MIC) (S. aureus membrane): Highly depolarizing |
| Cc1cc2ncn(Cc3ccc(Cl)c(Cl)c3)c2cc1C [Compound 1, 1-(3,4-dichlorobenzyl)-5,6-dimethyl-1H-benzo[d]imidazole] | 25 (≈ 81.9 µM) |  |  |  |  |  |  | Cell viability (done at 2X MIC) (S. aureus): Bactericidal intially but cells recover and compound is not lethal overnight; Depolarization (done at 2X MIC) (S. aureus membrane): Depolarization seen initially in the first 60 min; IC50 (FtuFabI; [6]): 300 nM |
| Cc1cc2ncn(C(C)c3ccc(Cl)c(Cl)c3)c2cc1C (centres unmarked) [Compound 2, 1-(1-(3,4-dichlorophenyl)ethyl)-5,6-dimethyl-1H-benzo[d]imidazole] | 12.5 (≈ 39.2 µM) | 12.5 (≈ 39.2 µM) | 12.5 (≈ 39.2 µM) | 6.3 (≈ 19.7 µM) | > 12.5 | > 12.5 |  | IC50 (FtuFabI; [6]): 370 nM; MBC [3]: 12.5 µg/mL (≈ 39.2 µM) |
| CC(c1ccc(Cl)c(Cl)c1)n1cnc2cc3c(cc21)CCC3 (centres unmarked) [Compound 3, 1-(1-(3,4-dichlorophenyl)ethyl)-1,5,6,7-tetrahydroindeno[5,6-d]imidazole] | 5.5 (≈ 16.6 µM) | 3.9 (≈ 11.8 µM) | 6.3 (≈ 19 µM) | 3.1 (≈ 9.36 µM) | 3.9 (≈ 11.8 µM) | > 12.5 | 43 | MBC [2]: 4.7 µg/mL (≈ 14.2 µM); Cell viability (done at 2X MIC) (S. aureus): Bacteriostatic; Depolarization (done at 2X MIC) (S. aureus membrane): Initially depolarizing (in first 60 min) but cells ‘recover’ and regain polarization compared to control with no compound; MBC (MRSA (ATCC number 43300)): 12.5 µg/mL (≈ 37.7 µM); MBC [3]: 12.5 µg/mL (≈ 37.7 µM); MIC [1]: 5.5 µg/mL (≈ 16.6 µM); MBC ([1]; Staphylococcus aureus): > 25 µg/mL; MBC [4]: 9.4 µg/mL (≈ 28.4 µM) |
| CC(c1ccc(Cl)c(Cl)c1)n1cnc2cc3c(cc21)CCCC3 (centres unmarked) [Compound 4, 1-(1-(3,4-dichlorophenyl)ethyl)-5,6,7,8-tetrahydro-1H-naphtho[2,3-d]imidazole] | 3.1 (≈ 8.98 µM) | 3.1 (≈ 8.98 µM) | 3.1 (≈ 8.98 µM) | 3.1 (≈ 8.98 µM) | 3.1 (≈ 8.98 µM) | > 12.5 | 630 | MBC [2]: 3.1 µg/mL (≈ 8.98 µM); Cell viability (done at 2X MIC) (S. aureus): Clearly bacteriostatic; Depolarization (done at 2X MIC) (S. aureus membrane): Initially depolarizing (in first 60 min) but cells ‘recover’ and regain polarization compared to control with no compound; Ki (FabI): 570 ± 140 nM; Ki (FtuFabI): 510 nM; MBC (MRSA (ATCC number 43300)): 25 µg/mL (≈ 72.4 µM); MBC [3]: > 25 µg/mL; MIC [1]: 3.1 µg/mL (≈ 8.98 µM); MBC ([1]; Staphylococcus aureus): 25 µg/mL (≈ 72.4 µM); MBC [4]: 25 µg/mL (≈ 72.4 µM) |
| CC(c1ccc(Cl)c(Cl)c1)n1cnc2cc3c(cc21)CC(C)(C)C3 (centres unmarked) [Compound 5, 1-(1-(3,4-dichlorophenyl)ethyl)-6,6-dimethyl-1,5,6,7-tetrahydroindeno[5,6-d]imidazole] | 4.7 (≈ 13.1 µM) | > 12.5 | 4.7 (≈ 13.1 µM) | > 12.5 | > 12.5 | > 12.5 |  | IC50 (FtuFabI; [6]): 240 nM; MBC (MRSA (ATCC number 43300)): > 12.5 µg/mL; MBC ([1]; Staphylococcus aureus): > 12.5 µg/mL |
| CC(c1ccc(Cl)c(Cl)c1)n1cnc2cc3c(cc21)COC3 (centres unmarked) [Compound 6, 1-(1-(3,4-dichlorophenyl)ethyl)-5,7-dihydro-1H-isobenzofuro[5,6-d]imidazole] | > 12.5 | > 12.5 | > 12.5 | > 12.5 | > 12.5 | > 12.5 |  | IC50 (FtuFabI; [6]): 890 nM |
| COc1ccc(Cn2cnc3cc(C)c(C)cc32)cc1C [Compound 7, 1-(4-methoxy-3-methylbenzyl)-5,6-dimethyl-1H-benzo[d]imidazole] | > 12.5 | > 12.5 | > 12.5 | 12.5 (≈ 44.6 µM) | > 12.5 | > 12.5 | 250 |  |
| COc1ccc(Cn2cnc3cc4c(cc32)CCC4)cc1C [Compound 8, 1-(4-methoxy-3-methylbenzyl)-1,5,6,7-tetrahydroindeno[5,6-d]imidazole] | > 12.5 | > 12.5 | > 12.5 | 12.5 (≈ 42.8 µM) | 5.5 (≈ 18.8 µM) | > 12.5 |  | IC50 (FtuFabI; [6]): 5 nM; MBC [4]: 12.5 µg/mL (≈ 42.8 µM) |
| COc1ccc(Cn2cnc3cc4c(cc32)CCCC4)cc1OC [Compound 10, 1-(3,4-dimethoxybenzyl)-5,6,7,8-tetrahydro-1H-naphtho[2,3-d]imidazole] | > 12.5 | > 12.5 | > 12.5 | > 12.5 | > 12.5 | > 12.5 |  | Ki (FabI; read-out: Ki^1 (Experimental Ki)): 1430 ± 270 nM; IC50 (FtuFabI; read-out: IC50): 1360 nM; IC50 (FtuFabI; [6]): 1360 nM; Ki (FtuFabI; read-out: Ki^2 (Calculated using the Cheng-Prusoff Equation)): 1100 nM |
| COc1ccc(Cn2cnc3cc4c(cc32)CC(C)(C)C4)cc1C [Compound 11, 1-(4-methoxy-3-methylbenzyl)-6,6-dimethyl-1,5,6,7-tetrahydroindeno[5,6-d]imidazole] | > 12.5 | > 12.5 | > 12.5 | > 12.5 | > 12.5 | > 12.5 | 14 |  |
| COc1ccc(Cn2cnc3cc4c(cc32)CC(C)(C)C4)cc1OC [Compound 12, 1-(3,4-dimethoxybenzyl)-6,6-dimethyl-1,5,6,7-tetrahydroindeno[5,6-d]imidazole] | > 12.5 | > 12.5 | > 12.5 | > 12.5 | > 12.5 | > 12.5 | 71 |  |
| CC1(C)Cc2cc3ncn(Cc4ccc5c(c4)OCO5)c3cc2C1 [Compound 13, 1-(benzo[d][1,3]dioxol-5-ylmethyl)-6,6-dimethyl-1,5,6,7-tetrahydroindeno[5,6-d]imidazole] | > 12.5 | > 12.5 | > 12.5 | 12.5 (≈ 39 µM) | > 12.5 | > 12.5 | 29 |  |
| CC1(C)Cc2cc3ncn(Cc4ccc5c(c4)CC[C@@H]5O)c3cc2C1 [Compound 15, (S)-5-((6,6-dimethyl-6,7-dihydroindeno[5,6-d]imidazol-1(5H)-yl)methyl)-2,3-dihydro-1H-inden-1-ol] | > 12.5 | > 12.5 | > 12.5 | > 12.5 | > 12.5 | > 12.5 | 41 |  |
| COc1ccc(Cn2cnc3cc(C)c(C)cc32)cc1 [Compound 16, 1-(4-methoxybenzyl)-5,6-dimethyl-1H-benzo[d]imidazole] |  |  |  |  |  |  | 4700 |  |
| Cc1cc2ncn(Cc3ccc4c(c3)OCO4)c2cc1C [Compound 17, 1-(benzo[d][1,3]dioxol-5-ylmethyl)-5,6-dimethyl-1H-benzo[d]imidazole] |  |  |  |  |  |  | 4400 |  |
| Cc1cc2ncn(Cc3ccc(O)c(C)c3)c2cc1C [Compound 18, 4-((5,6-dimethyl-1H-benzo[d]imidazol-1-yl)methyl)-2-methylphenol] |  |  |  |  |  |  | 1300 |  |
| c1cc2c(cc1Cn1cnc3cc4c(cc31)CCC4)OCO2 [Compound 19, 1-(benzo[d][1,3]dioxol-5-ylmethyl)-1,5,6,7-tetrahydroindeno[5,6-d]imidazole] | 9.4 (≈ 32.2 µM) | > 12.5 | 10.9 (≈ 37.3 µM) | > 12.5 | 6.3 (≈ 21.6 µM) | > 12.5 | 2200 | MBC (MRSA (ATCC number 43300)): > 25 µg/mL; MBC ([1]; Staphylococcus aureus): > 25 µg/mL; MBC [4]: 37.5 µg/mL (≈ 128 µM) |
| COc1ccc(Cn2cnc3cc4c(cc32)CCC4)cc1 [Compound 20, 1-(4-methoxybenzyl)-1,5,6,7-tetrahydroindeno[5,6-d]imidazole] | > 12.5 | > 12.5 | > 12.5 | > 12.5 | 5.5 (≈ 19.8 µM) | > 12.5 | 840 | MBC [4]: 37.5 µg/mL (≈ 135 µM) |
| Nc1ccc(Cn2cnc3cc4c(cc32)CCC4)cc1 [Compound 21, 4-((6,7-dihydroindeno[5,6-d]imidazol-1(5H)-yl)methyl)aniline] | > 12.5 | > 12.5 | > 12.5 | > 12.5 | > 12.5 | > 12.5 | 12000 |  |
| COc1ccc(Cn2cnc3cc(C)c(C)cc32)cc1OC [Compound 22, 1-(3,4-dimethoxybenzyl)-5,6-dimethyl-1H-benzo[d]imidazole] |  |  |  |  |  |  | 7600 |  |
| COc1ccc(Cn2cnc3cc4c(cc32)CCC4)cc1OC [Compound 23, 1-(3,4-dimethoxybenzyl)-1,5,6,7-tetrahydroindeno[5,6-d]imidazole] |  |  |  |  |  |  | 5900 |  |
| COc1ccc(Cn2cnc3cc4c(cc32)CCCC4)cc1 [Compound 24, 1-(4-methoxybenzyl)-5,6,7,8-tetrahydro-1H-naphtho[2,3-d]imidazole] | > 12.5 | > 12.5 | > 12.5 | 12.5 (≈ 42.8 µM) | 4.7 (≈ 16.1 µM) | > 12.5 | 330 | MBC [3]: > 25 µg/mL; MBC [4]: 18.8 µg/mL (≈ 64.3 µM) |
| Oc1cc(Cl)ccc1Oc1ccc(Cl)cc1Cl [Triclosan, reference compound] | 0.4 (≈ 1.38 µM) |  |  |  |  |  |  | Cell viability (done at 2X MIC) (S. aureus): Possibly bacteriostatic initially but then bactericidal after overnight incubation; Depolarization (done at 2X MIC) (S. aureus membrane): Strongly depolarizing |
